Assays:
HCT-116 = experiment: Antiproliferative activity against HCT116 cells by SRB assay after 72 hrs; assay type: functional; settings: Homo sapiens, HCT-116, 72 h
[1] = target: Cyclin-dependent kinase 2 (Homo sapiens, UniProt P24941); experiment: Inhibition of CDK2
[2] = target: Glycogen synthase kinase-3 beta (Homo sapiens, UniProt P49841); experiment: Inhibition of GSK3-beta
[3] = target: RAC-alpha serine/threonine-protein kinase (Homo sapiens) (UniProt P31749); experiment: Inhibition of AKT at 10 uM
Sequence of RAC-alpha serine/threonine-protein kinase (Homo sapiens) (P31749 whole entry): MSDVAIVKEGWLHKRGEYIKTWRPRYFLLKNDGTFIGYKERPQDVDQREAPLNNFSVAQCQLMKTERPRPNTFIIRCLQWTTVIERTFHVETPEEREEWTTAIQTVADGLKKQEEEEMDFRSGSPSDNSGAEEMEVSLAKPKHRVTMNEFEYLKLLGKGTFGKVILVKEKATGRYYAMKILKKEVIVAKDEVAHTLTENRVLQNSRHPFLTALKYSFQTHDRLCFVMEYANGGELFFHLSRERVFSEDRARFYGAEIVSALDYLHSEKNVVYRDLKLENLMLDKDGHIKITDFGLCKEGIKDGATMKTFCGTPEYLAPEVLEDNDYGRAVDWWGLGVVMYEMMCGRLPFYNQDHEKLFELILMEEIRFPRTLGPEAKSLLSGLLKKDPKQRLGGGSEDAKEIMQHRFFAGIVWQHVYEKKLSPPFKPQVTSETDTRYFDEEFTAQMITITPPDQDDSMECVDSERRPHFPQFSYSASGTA

[4] = target: T1, Serine/threonine-protein kinase Chk1 (Homo sapiens) (UniProt O14757); experiment: Inhibition of Chk1 at 50 uM
T1 sequence (whole entry): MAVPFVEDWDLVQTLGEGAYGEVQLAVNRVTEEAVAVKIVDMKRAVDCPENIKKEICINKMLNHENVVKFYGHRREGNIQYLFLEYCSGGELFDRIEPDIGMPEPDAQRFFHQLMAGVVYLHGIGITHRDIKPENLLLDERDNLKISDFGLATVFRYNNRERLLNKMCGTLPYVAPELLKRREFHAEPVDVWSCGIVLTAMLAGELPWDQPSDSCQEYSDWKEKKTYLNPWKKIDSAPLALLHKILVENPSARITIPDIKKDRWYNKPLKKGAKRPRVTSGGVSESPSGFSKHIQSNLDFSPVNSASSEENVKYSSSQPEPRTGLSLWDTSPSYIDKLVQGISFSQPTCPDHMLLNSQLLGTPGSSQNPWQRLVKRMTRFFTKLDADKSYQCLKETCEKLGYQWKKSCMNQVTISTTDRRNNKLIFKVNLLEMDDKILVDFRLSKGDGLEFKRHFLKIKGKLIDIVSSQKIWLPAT

[5] = Inhibition of PKA; set-up: species or system Homo sapiens

Sequence of Glycogen synthase kinase-3 beta (P49841 whole entry): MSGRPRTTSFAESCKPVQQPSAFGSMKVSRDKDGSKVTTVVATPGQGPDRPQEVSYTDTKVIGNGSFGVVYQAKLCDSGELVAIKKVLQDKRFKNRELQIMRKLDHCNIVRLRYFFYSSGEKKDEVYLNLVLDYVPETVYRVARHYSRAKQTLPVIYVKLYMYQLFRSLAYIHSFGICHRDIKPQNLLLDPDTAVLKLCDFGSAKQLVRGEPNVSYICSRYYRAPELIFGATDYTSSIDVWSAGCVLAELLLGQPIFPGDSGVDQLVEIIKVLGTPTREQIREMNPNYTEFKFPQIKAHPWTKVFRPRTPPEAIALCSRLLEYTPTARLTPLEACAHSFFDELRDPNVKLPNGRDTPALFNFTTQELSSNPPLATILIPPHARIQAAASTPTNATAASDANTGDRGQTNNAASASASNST

Compound	GI50 (HCT-116) [µM]	IC50 [1] [µM]	IC50 [2] [nM]	inhibition [3] [%]	inhibition [4] [%]	IC50 [5] [µM]
NS(=O)(=O)c1ccc(-c2ccc(/C=C3\SC(=O)NC3=O)o2)cc1	> 80					
N=C1NC(=O)/C(=C/c2ccc(-c3ccc(S(N)(=O)=O)c(Cl)c3)o2)S1	> 80	0.57	14			
N=C1NC(=O)/C(=C/c2ccc(-c3ccc(S(=O)(=O)N4CCNCC4)cc3)o2)S1	> 80	2.9				
N=C1NC(=O)/C(=C/c2ccc(-c3ccc(S(N)(=O)=O)cc3)o2)S1	> 80		250	54	44	77
N=C1NC(=O)/C(=C/c2ccc(-c3ccccc3[N+](=O)[O-])o2)S1	> 80	19				
N=C1NC(=O)/C(=C/c2ccc(-c3ccc(C(=O)O)cc3)o2)S1	> 80					
CN(C)CCNS(=O)(=O)c1ccc(-c2ccc(/C=C3\SC(=N)NC3=O)o2)cc1	> 80	0.57	510			
N=C1NC(=O)/C(=C/c2ccc(-c3ccc(C(N)=O)cc3)o2)S1	> 80	9.3				
N=C1NC(=O)/C(=C/c2ccc(-c3ccc(S(N)(=O)=O)c(C(F)(F)F)c3)o2)S1	> 80		2			
N=C1NC(=O)/C(=C/c2ccc(-c3ccc(S(=O)(=O)N4CCOCC4)cc3)o2)S1		150				
C/C(=C1/SC(=N)NC1=O)c1ccc(-c2ccc(S(N)(=O)=O)cc2)o1	> 80		430			
CNS(=O)(=O)c1ccc(-c2ccc(/C=C3\SC(=N)NC3=O)o2)cc1	> 80		80			

Source: ChEMBL document CHEMBL1149560, “Discovery of a potent CDK2 inhibitor with a novel binding mode, using virtual screening and initial, structure-guided lead scoping” (Bioorg Med Chem Lett, 2007)
